From PubChem BioAssay AID504553 (Southern Research Specialized Biocontainment Screening …, 2011) come the findings set out here.

The term IC50 denotes the concentration at which inhibition is half-maximal.

For the assay, the system named is MAGI-CCR5 cells, HIV-1 Ba-L, beta-gal luminescence, 48 h. Nature of the assay: inhibitors of R5 HIV-1 replication in MAGI cells – MAGI-CCR5 cells, HIV-1 Ba-L, 2% serum, set 4, dose response (AID 504553).

For `Cc1c2c(=O)n(-c3nc4ccccc4s3)nc-2cc(O)n1Cc1cccs1`, the IC50 is 7.43 µM.

With `Cc1c2c(=O)n(-c3nc4ccccc4s3)nc-2cc(O)n1Cc1ccc(F)cc1`, the IC50 was 3.53 µM.

For `Cc1c2c(=O)n(-c3nc4ccccc4s3)nc-2cc(O)n1Cc1ccncc1`, the 50% inhibitory concentration (IC50) is 9.51 µM.

Take `Cc1c2c(=O)n(-c3nc4ccccc4s3)nc-2cc(O)n1Cc1ccccc1`: the IC50 was 9.28 µM.

Turning to `Cc1c2c(=O)n(-c3nc4ccccc4s3)nc-2cc(O)n1C1CC1`, the IC50 is 6.99 µM.

As to `Cc1c2c(=O)n(-c3nc4ccccc4s3)nc-2cc(O)n1CCc1ccc(O)cc1`, the IC50 is 23 µM.

Turning to `Cc1c2c(=O)n(-c3nc4ccccc4s3)nc-2cc(O)n1CCC(C)C`, the IC50 is 9.35 µM.

Consider `Cc1c2c(=O)n(-c3nc4ccccc4s3)nc-2cc(O)n1CCc1cccs1`, for which the 50% inhibitory concentration (IC50) was 19 µM.

Take `Cc1c2c(=O)n(-c3nc4ccccc4s3)nc-2cc(O)n1Cc1cccnc1`: the half-maximal inhibitory concentration (IC50) was 6.07 µM.

As to `COc1ccc(Cn2c(O)cc3nn(-c4nc5ccccc5s4)c(=O)c-3c2C)cc1`, the IC50 is 29.2 µM.

As to `COc1ccc(CCn2c(O)cc3nn(-c4nc5ccccc5s4)c(=O)c-3c2C)cc1`, the 50% inhibitory concentration (IC50) was 4.64 µM.

As to `COc1ccccc1Cn1c(O)cc2nn(-c3nc4ccccc4s3)c(=O)c-2c1C`, the IC50 was 19.6 µM.

As to `Cc1c2c(=O)n(-c3nc4ccccc4s3)nc-2cc(O)n1Cc1ccccc1Cl`, the IC50 was 3.39 µM.
